Results as given in patent publication US6559139B1, “Combination chemotherapy” (University of Pittsburgh of the Commonwealth System of …, priority 1997, dated 2003).

Assays:
SCCVII/SF cells [1] = test: in vitro clonogenic assay; assay type: cell-based, murine; details: for enhancement of clonogenic cell kill: p<0.001 ANOVA
Protocol: The in vitro cytotoxicity of drug on tumor cells was determined via the in vitro clonogenic assay (McElwain et al., Mol. Cell. Diff., 3, 31-50 (1995)) with minor modifications as described herein. Briefly, murine SCCVII/SF cells were pre-treated with either 2 nM or 4 nM 1,25D3 or Ro23-7553. […] After 48 hours incubation with 1,25D3 or Ro23-7553, cells were treated for 2 hours with varying concentrations of cytotoxic agent, washed with RPMI 1640 plus FCS, and plated in various dilutions in 6-well tissue culture plates. Following a 7 day incubation at 37° C. in 5% CO2, monolayers were washed with saline, fixed with 100% methanol, and stained with 10% Giemsa; colonies were counted under light microscopy. The surviving fraction was calculated by dividing the cloning efficiency of treated cells by the cloning efficiency of untreated controls.

SCCVII/SF tumor [2] = test: in vivo excision clonogenic tumor cell survival assay; parameters: species or system C3H/HeJ mice; details: for enhancement of clonogenic cell kill: p<0.001 ANOVA
Protocol: The effect of 1,25D3 or Ro23-7553 alone and/or in combination with various cytotoxic agents on tumor cells in vivo was determined by a modification of the in vivo excision clonogenic tumor cell survival assay (Johnson et al., Cancer Chemother. Pharmacol., 32, 339-46 (1993)). Briefly, SCCVII/SF tumor bearing animals at 14 days post implantation were treated i.p. for 3 days with 1,25D3 or Ro23-7553 at either 0.5 mg/kg body weight/day or at varying doses of 0.03125-0.5 mg/kg body weight/day. […] After 24 hours, aliquots of minced tumor were enzymatically dissociated for 60 min at room temperature with a mixture of type I collagenase (37.5 mg/ml), DNAse (55 mg/ml) and EDTA (1%). Viable tumor cells (determined by trypan blue staining) were then plated at various dilutions. After 7 days incubation, colonies were counted, and numbers of clonogenic cells per gram of tumor were counted. The mean±standard deviation (SD) cell yield, cloning efficiency, and number of clonogenic cells for control (no treatment) tumors (n=40) averaged 139.4±38.2×10^6 viable tumor cells/g tumor, 27.0±0.56%, and 37.5±13.3×10^6 clonogenic tumor cells/g tumor, respectively. The surviving fraction per gram of tumor is defined as the number of clonogenic tumor cells per gram of treated tumor divided by the number of clonogenic tumor cells per gram of control (untreated) tumor. This assay is an accurate measure of in vivo anti-tumor activity; a surviving fraction less than 0.1 correlates with an actual decrease in tumor volume and an increase in tumor regrowth delay (Braunschweiger et al., Cancer Res., 48, 6011-16 (1988); Braunschweiger et al., Cancer Res., 51, 5454-60 (1991)).

SCCVII/SF tumor [3] = test: tumor regrowth assay (delay of tumor growth); assay type: in vivo, C3H/HeJ mice; details: for fractional tumor volume: vs either agent alone; for Tumor Regrowth Delay: mean±SD of the difference in time for treated and control tumors to reach 4× pretreatment size, Ro23-7553 continuous, cisplatin 6 mg/kg i.p.
Protocol: SCCVII/SF tumor cells (5×10^5) were inoculated s.c. into the flank of the leg of C3H/HeJ mice. On day 9 post implantation, as the tumors were palpable (approximately 5×5 mm), animals were randomized for treatment with low dose i.p. […] After 7 days, 6 mg/kg body weight cytotoxic agent was injected i.p. Control animals received either treatment alone or no treatment. Control (no treatment) animals were given injection of vehicle (PBS) alone or sham pumps were implanted. Tumor growth was assessed by measuring the tumor diameter with calipers three times weekly. […] Post-treatment volumes were expressed as a fraction of pretreatment volume at the time of initial treatment. Tumor regrowth delay was calculated as the mean±standard deviation of the difference in time for treated and control tumor volumes to reach 4 times the pretreatment volume.

[4] = hypercalcemia in treated SCCVII/SF tumor-bearing animals; assay type: in vivo, C3H/HeJ mice
MAPK = test: Western Blot of phosphorylated MAPK and MAPK in SCC cells; assay type: cell-based; details: 10 nM 1,25D3, vs untreated cells
Protocol: (§1) SCC cells were treated in vitro with 10 nM 1,25D3, and untreated cells served as a control. The level of phosphorylated MAPK was assessed at 24 and 48 hours post treatment. Using Western Blot analysis, the amounts of MAPK, MEK (the kinase responsible for phosphorylating MAPK), MKP-1 (a MAPK-specific phosphatase), and growth factor receptors (EGF, PDGF, and IGF1 growth factor receptors) were assessed as well. Additionally, the activity level of MEK was assessed by quantitative in vitro kinase assays.

MEK [5] = test: Western Blot of MEK protein in SCC cells; assay type: cell-based; details: 10 nM 1,25D3; vs untreated cells
Protocol: as §1

MEK [6] = test: quantitative in vitro kinase assay of MEK activity; assay type: cell-based; details: 10 nM 1,25D3; vs untreated cells
Protocol: as §1

[7] = tested on: MKP-1 (a MAPK-specific phosphatase); test: Western Blot of MKP-1 in SCC cells; assay type: cell-based; details: 10 nM 1,25D3; vs untreated cells
Protocol: as §1

[8] = tested on: EGF, PDGF, and IGF1 growth factor receptors; test: Western Blot of growth factor receptors in SCC cells; assay type: cell-based; details: 10 nM 1,25D3; vs untreated cells
Protocol: as §1

[9] = serum calcium levels in normal mice treated with 1,25D3 with or without zoledronate
Protocol: Normal C3H/HeJ mice were pretreated with 10 μg/kg body weight zoledronate and then treated with 0.25 μg 1,25D3 once a day for three days. Control animals received 1,25D3 alone, and one group of animals received only zoledronate. Following the last 1,25D3 treatment, blood was collected at 0, 24 and 48 hours from each mouse, and the serum calcium levels were measured.

SCCVII/SF cells [10] = details: 24 hr, 48 hr and 7 day incubation times; cited from earlier work
[11] = clinical carboplatin / 1,25D3 schedule: carboplatin AUC and myelosuppression; assay type: in vivo, human; details: for mean AUC of carboplatin: dose calculated to achieve AUC=5, ±1.3
Protocol: Patients with malignant tumors were subject to a treatment regimen involving carboplatin and 1,25D3, but 48 hours prior to treatment, each patient was placed on a low calcium diet (250-300 mg/48 hr) and maintained on that diet for at least 7 days.
According to this regimen, each cycle lasts four weeks. For successive cycles, the dosage of 1,25D3 is increased by 30%. For the first two cycles, the patients were divided into two groups as follows:
Group 1. On day 1, this group of patients was given carboplatin (intravenously as a 30-minute infusion in 100 ml of carrier) at a dose calculated to achieve AUC=5. 24 hours later, a plasma sample was taken to determine carboplatin AUC, and the patients were placed on a three-day regimen of subcutaneous 1,25D3 per the schedule indicated in Table 2.
Group 2. On day 1, this group of patients was placed on a three-day regimen of subcutaneous 1,25D3. On day 3, the patients were given carboplatin at a dose calculated to achieve AUC=5. 24 hours later, a plasma sample was taken to determine carboplatin AUC.
Following the first cycle, the groups switched between pretreatment and post treatment. For the third and subsequent cycles in this treatment, the patients were placed on a three-day regimen of subcutaneous 1,25D3. On day 3, the patients were given carboplatin. at a dose calculated to achieve AUC=5. 24 hours later, a plasma sample was taken to determine carboplatin AUC.
Following the first two cycles, patients were assessed to determine the effect on carboplatin AUC by pretreatment vs. post treatment with 1,25D3.

## C=C1/C(=C\C=C2/CCC[C@]3(C)[C@@H]([C@H](C)CCCC(C)(C)O)CC[C@@H]23)C[C@@H](O)C[C@@H]1O [1,25D3, 1,25-dihydroxycholecalciferol]
SCCVII/SF cells [1]; concurrent administration of 1,25D3 and paclitaxel
  enhancement of clonogenic cell kill over paclitaxel alone: did not result in an enhancement of clonogenic cell kill
SCCVII/SF cells [1]; pretreatment with 2 nM 1,25D3 for 48 hours, then carboplatin, vs carboplatin alone or concurrent
  enhancement of clonogenic cell kill: significantly enhanced clonogenic cell kill
SCCVII/SF cells [1]; pretreatment with 1,25D3, then paclitaxel
  enhancement of clonogenic cell kill: significantly enhanced clonogenic cell kill
SCCVII/SF tumor [2]; 1,25D3 0.2 μg/day i.p. 3 days, varying doses of paclitaxel on day 3, vs paclitaxel alone
  enhancement of clonogenic cell kill: significant enhancement of clonogenic cell kill
SCCVII/SF tumor [2]; 1,25D3 0.5 mg/kg body weight/day i.p. 3 days, carboplatin 25-100 mg/kg on day 3, vs either alone
  enhancement of clonogenic cell kill: significant enhancement of clonogenic cell kill
SCCVII/SF tumor [2]; 1,25D3 varying doses i.p. 3 days, carboplatin 50 mg/kg on day 3, vs carboplatin alone
  enhancement of clonogenic cell kill: significant enhancement of clonogenic cell even at the lowest doses of 1,25D3
SCCVII/SF tumor [3]; 0.2 μg/mouse 1,25D3 continuously for two to eight days, then paclitaxel 40 mg/kg i.p.
  fractional tumor volume: significant decrease in fractional tumor volume
[4]; 1,25D3 0.2 μg/day 3 days with paclitaxel
  hypercalcemia: No animals became hypercalcemic
[4]; any of the 1,25D3 doses tested, with carboplatin 50 mg/kg
  hypercalcemia: No animals became hypercalcemic
MAPK; 24 and 48 hours
  level of phosphorylated MAPK: less phosphorylated MAPK
MAPK
  amount of MAPK protein: not affected
MEK [5]
  amount of MEK protein: slightly less MEK protein
MEK [6]
  MEK activity profile: not significantly different
[7]
  amount of MKP-1: higher amounts of MKP-1
[8]
  amounts of EGF, PDGF, and IGF1 growth factor receptors: significantly higher amounts
[9]; 24 hours after last 1,25D3 treatment (0.25 μg once a day, three days)
  serum calcium levels: 17.2 ± 1.1 mg/dL
[9]; 48 hours after last 1,25D3 treatment (0.25 μg once a day, three days)
  serum calcium levels: 16.5 ± 1.1 mg/dL
SCCVII/SF cells [10]
  anti-proliferative effects: anti-proliferative effects are observed

## O=P(O)(O)C(O)(Cn1ccnc1)P(=O)(O)O [zoledronate]
[9]; vs control animals (1,25D3 alone)
  dehydration, piloerection, and cachexia attributable to hypercalcemia: less dehydration, piloerection, and cachexia

## C=C1/C(=C\C=C2/CCC[C@]3(C)C([C@H](C)CC#CC(C)(C)O)=CC[C@@H]23)C[C@@H](O)C[C@@H]1O [Ro23-7553, 1,25-dihydroxy-16-ene-23-yne-cholecalciferol]
SCCVII/SF cells [1]; pretreatment with 2 nM and 4 nM Ro23-7553, then 0.2-0.8 μg/ml cisplatin, vs cisplatin alone or concurrent administration
  enhancement of clonogenic cell kill: significantly enhanced clonogenic cell kill
SCCVII/SF tumor [2]; Ro23-7553 0.5 mg/kg body weight/day i.p. 3 days, varying doses of cisplatin on day 3, vs cisplatin or Ro23-7553 alone
  enhancement of clonogenic cell kill: significant enhancement of clonogenic cell kill
SCCVII/SF tumor [2]; Ro23-7553 0.03125-0.5 mg/kg body weight/day 3 days, cisplatin 6 mg/kg on day 3, vs either alone, p<0.01 ANOVA
  enhancement of cisplatin-mediated tumor cell kill: significantly enhancing cisplatin-mediated tumor cell kill even at the lowest doses tested
SCCVII/SF tumor [3]; Ro23-7553 administered continuously, then cisplatin 6 mg/kg i.p., p<0.001 ANOVA
  fractional tumor volume: significant decrease in fractional tumor volume
SCCVII/SF tumor [3]
  Tumor Regrowth Delay: 1.8 ± 0.8
[4]; any of the Ro23-7553 doses (0.03125-0.5 mg/kg/day, 3 days) with cisplatin
  hypercalcemia: No animals in either experimental approach became hypercalcemic
SCCVII/SF cells [10]
  anti-proliferative effects: anti-proliferative effects are observed

## N.N.O=C([O-])C1(C(=O)[O-])CCC1.[Pt+2] [carboplatin]
[11]; carboplatin D1
  mean AUC of carboplatin: 7800 ng·h/mL
[11]; carboplatin D3
  mean AUC of carboplatin: 6700 ng·h/mL
[11]; carboplatin followed by adjunctive 1,25D3, each patient
  myleosuppression: consistently less
[11]; each patient, first two cycles
  AUC of carboplatin when pretreated with 1,25D3 vs carboplatin given first: higher in each patient

## N.N.[Cl][Pt][Cl] [Cisplatin, cisplatin]
SCCVII/SF tumor [3]
  Tumor Regrowth Delay: 4.4 ± 0.3
